Target: T1, rat NHE-3 (Rattus norvegicus, UniProt P26433)
T1 construct: expressed in transfected cells; host or cells: Opossum kidney (OK) cells (ATCC), electroporated
Experiment: Cell-based assay of NHE-3 activity (Pharmacological Test Example 1)
Details: not given
Procedure: Rat NHE-3-mediated Na^+-dependent H^+ antiport was measured using a modification of the pH sensitive dye method originally reported by Tsien (Proc. Natl. Acad. Sci. USA. (1984) 81(23): 7436-7440). Opossum kidney (OK) cells were obtained from the ATCC and propagated per their instructions. The rat NHE-3 gene was introduced into OK cells via electroporation, seeded into 96 well plates and grown overnight. Medium was aspirated from the wells, cells were washed twice with NaCl-HEPES buffer (100 mM NaCl, 50 mM HEPES, 10 mM glucose, 5 mM KCl, 2 mM CaCl2, 1 mM MgCl2, pH 7.4), then incubated for 30 min at room temperature with NH4Cl-HEPES buffer (20 mM NH4Cl, 80 mM NaCl, 50 mM HEPES, 5 mM KCl, 2 mM CaCl2), 1 mM MgCl2, pH 7.4) containing 5 uM BCECF-AM (Invitrogen). Cells were washed twice with Ammonium free, Nat-free HEPES (100 mM choline, 50 mM HEPES, 10 mM glucose, 5 mM KCl, 2 mM CaCl2), 1 mM MgCl2, pH 7.4) and incubated in the same buffer for 10 minutes at room temperature to lower intracellular pH. […] Initial rates were plotted as the average 3-6 replicates, and pIC50 values were estimated using GraphPad Prism.

T1 sequence (P26433 29-831): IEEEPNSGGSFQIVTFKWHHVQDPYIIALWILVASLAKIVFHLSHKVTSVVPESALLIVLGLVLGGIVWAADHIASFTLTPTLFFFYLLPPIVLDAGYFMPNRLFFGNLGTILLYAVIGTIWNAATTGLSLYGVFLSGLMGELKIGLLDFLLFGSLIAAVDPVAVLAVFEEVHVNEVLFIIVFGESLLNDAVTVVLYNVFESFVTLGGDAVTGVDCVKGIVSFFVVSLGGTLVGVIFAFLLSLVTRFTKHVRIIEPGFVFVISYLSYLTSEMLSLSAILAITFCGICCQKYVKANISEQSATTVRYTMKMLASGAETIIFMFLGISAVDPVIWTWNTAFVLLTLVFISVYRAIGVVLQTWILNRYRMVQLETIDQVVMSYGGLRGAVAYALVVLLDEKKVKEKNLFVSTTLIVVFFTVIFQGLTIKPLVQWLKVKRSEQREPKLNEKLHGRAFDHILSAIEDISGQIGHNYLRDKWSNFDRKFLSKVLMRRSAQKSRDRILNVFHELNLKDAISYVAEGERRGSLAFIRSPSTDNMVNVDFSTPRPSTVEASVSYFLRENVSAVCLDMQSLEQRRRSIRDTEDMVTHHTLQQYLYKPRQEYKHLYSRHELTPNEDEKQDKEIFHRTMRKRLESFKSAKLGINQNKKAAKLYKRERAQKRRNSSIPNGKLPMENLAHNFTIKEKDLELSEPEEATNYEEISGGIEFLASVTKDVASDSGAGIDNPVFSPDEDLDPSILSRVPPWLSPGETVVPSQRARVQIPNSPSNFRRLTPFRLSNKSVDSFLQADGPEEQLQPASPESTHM

Row | Compound | rat NHE-3 Average pIC50
1 | CN1Cc2c(Cl)cc(Cl)cc2C(c2ccc(S(=O)(=O)NCCOCCOCCNC(=O)c3ccc(C(=O)NCCOCCOCCNS(=O)(=O)c4ccc(C5CN(C)Cc6c(Cl)cc(Cl)cc65)cc4)cc3)cc2)C1 (stereo not shown) [Example 231, N1,N4-bis(2-(2-(2-(4-(6,8-dichloro-2-methyl-1,2,3,4-tetrahydroisoquinolin-4-yl)phenylsulfonamido)ethoxy)ethoxy)ethyl)terephthalamide] | <5.0

Same assay, conditions: OK cells expressing rat NHE-3; 0-30 uM test compound, 5 uM EIPA

Row | rat NHE-3 Average pIC50 | Compound
2 | 6 to 7 | CN1Cc2c(Cl)cc(Cl)cc2C(c2cccc(S(=O)(=O)NCCOCCOCCOCCNC(=O)CN(CC(=O)NCCOCCOCCOCCNS(=O)(=O)c3cccc(C4CN(C)Cc5c(Cl)cc(Cl)cc54)c3)CC(=O)NCCOCCOCCOCCNS(=O)(=O)c3cccc(C4CN(C)Cc5c(Cl)cc(Cl)cc54)c3)c2)C1 (stereo not shown) [Example 213, 2,2′,2″-nitrilotris(N-(2-(2-(2-(2-(3-(6,8-dichloro-2-methyl-1,2,3,4-tetrahydroisoquinolin-4-yl)phenylsulfonamido)ethoxy)ethoxy)ethoxy)ethyl)acetamide)]
3 | >7 | CN1Cc2c(Cl)cc(Cl)cc2C(c2cccc(S(=O)(=O)NCCOCCOCCNCc3ccc(CNCCOCCOCCNS(=O)(=O)c4cccc(C5CN(C)Cc6c(Cl)cc(Cl)cc65)c4)cc3)c2)C1 (stereo not shown) [Example 206, N,N′-(2,2′-(2,2′-(2,2′-(1,4-phenylenebis(methylene))bis(azanediyl)bis(ethane-2,1-diyl))bis(oxy)bis(ethane-2,1-diyl))bis(oxy)bis(ethane-2,1-diyl))bis(3-(6,8-dichloro-2-methyl-1,2,3,4-tetrahydroisoquinolin-4-yl)benzenesulfonamide)]
4 | 6 to 7 | N=C(N)N1CCN(c2ccc(-c3nc(N=C(N)N)nc4ccc(Cl)cc34)cc2)CC1 [Example 66, 4-(4-(6-chloro-2-(diaminomethyleneamino)quinazolin-4-yl)phenyl)piperazine-1-carboximidamide]
5 | 6 to 7 | CN1Cc2c(Cl)cc(Cl)cc2C(c2cccc(S(=O)(=O)NCCOCCOCCOCCNC(=O)CCOCCOCCOCCOCCOCCOCCOCCOCCOCCC(=O)NCCOCCOCCOCCNS(=O)(=O)c3cccc(C4CN(C)Cc5c(Cl)cc(Cl)cc54)c3)c2)C1 (stereo not shown) [Example 97, N1,N31-bis(2-(2-(2-(2-(3-(6,8-dichloro-2-methyl-1,2,3,4-tetrahydroisoquinolin-4-yl)phenylsulfonamido)ethoxy)ethoxy)ethoxy)ethyl)-4,7,10,13,16,19,22,25,28-nonaoxahentriacontane-1,31-diamide]
6 | >7 | CN1Cc2c(Cl)cc(Cl)cc2C(c2cccc(S(=O)(=O)NCCOCCOCCNC(=O)COCC(=O)NCCOCCOCCNS(=O)(=O)c3cccc(C4CN(C)Cc5c(Cl)cc(Cl)cc54)c3)c2)C1 (stereo not shown) [Example 195, 2,2′-oxybis(N-(2-(2-(2-(3-(6,8-dichloro-2-methyl-1,2,3,4-tetrahydroisoquinolin-4-yl)phenylsulfonamido)ethoxy)ethoxy)ethyl)acetamide)]
7 | >7 | CN1Cc2c(Cl)cc(Cl)cc2C(c2ccc(S(=O)(=O)NCCOCCOCCOCCNC(=O)CCOCCOCCOCCOCCOCCOCCOCCOCCOCCC(=O)NCCOCCOCCOCCNS(=O)(=O)c3ccc(C4CN(C)Cc5c(Cl)cc(Cl)cc54)cc3)cc2)C1 (stereo not shown) [Example 98, N1,N31-bis(2-(2-(2-(2-(4-(6,8-dichloro-2-methyl-1,2,3,4-tetrahydroisoquinolin-4-yl)phenylsulfonamido)ethoxy)ethoxy)ethoxy)ethyl)-4,7,10,13,16,19,22,25,28-nonaoxahentriacontane-1,31-diamide]
8 | <5.0 | CN1Cc2c(Cl)cc(Cl)cc2C(c2ccc(S(=O)(=O)NCCOCCOCCNC(=O)C(=O)NCCOCCOCCNS(=O)(=O)c3ccc(C4CN(C)Cc5c(Cl)cc(Cl)cc54)cc3)cc2)C1 (stereo not shown) [Example 175, N1,N2-bis(2-(2-(2-(4-(6,8-dichloro-2-methyl-1,2,3,4-tetrahydroisoquinolin-4-yl)phenylsulfonamido)ethoxy)ethoxy)ethyl)oxalamide]
9 | 5 to 6 | N=C(N)Nc1nc(-c2cccc(N3CCN(CCC(=O)O)CC3)c2)c2cc(Cl)ccc2n1 [Example 64, 3-(4-(3-(6-chloro-2-(diaminomethyleneamino)quinazolin-4-yl)phenyl)piperazin-1-yl)propanoic acid]
10 | 6 to 7 | C/C(=C\c1cc(F)c(Oc2ccc(S(=O)(=O)NCCOCCOCCOCCN)cc2)c(F)c1)C(=O)N=C(N)N [Example 45, (E)-3-(4-(4-(N-(2-(2-(2-(2-aminoethoxy)ethoxy)ethoxy)ethyl)sulfamoyl)phenoxy)-3,5-difluorophenyl)-N-(diaminomethylene)-2-methylacrylamide]

Row | Compound | rat NHE-3 Average pIC50
11 | CN1Cc2c(Cl)cc(Cl)cc2C(c2ccc(S(=O)(=O)NCCOCCOCCOCCNC(=O)NCCOCCOCCOCCNS(=O)(=O)c3ccc(C4CN(C)Cc5c(Cl)cc(Cl)cc54)cc3)cc2)C1 (stereo not shown) [Example 103, N,N′-(13-oxo-3,6,9,17,20,23-hexaoxa-12,14-diazapentacosane-1,25-diyl)bis(4-(6,8-dichloro-2-methyl-1,2,3,4-tetrahydroisoquinolin-4-yl)benzenesulfonamide)] | >7

Same assay, conditions: OK cells expressing rat NHE-3; 0-30 uM test compound, 5 uM EIPA; read-out: rat NHE-3 Average pIC50 (converted)

Row | IC50 [µM] | Compound
12 | 1 to 10 | CN1Cc2c(Cl)cc(Cl)cc2C(c2cccc(S(=O)(=O)NCCOCCOCCOCCNS(=O)(=O)c3cccc(S(=O)(=O)NCCOCCOCCOCCNS(=O)(=O)c4cccc(C5CN(C)Cc6c(Cl)cc(Cl)cc65)c4)c3)c2)C1 (stereo not shown) [Example 219, N1,N3-bis(2-(2-(2-(2-(3-(6,8-dichloro-2-methyl-1,2,3,4-tetrahydroisoquinolin-4-yl)phenylsulfonamido)ethoxy)ethoxy)ethoxy)ethyl)benzene-1,3-disulfonamide]
13 | 0.1 to 1 | C/C(=C\c1cc(F)c(Oc2ccc(S(=O)(=O)NCCOCCOCCOCCNC(=O)CCOCCOCCOCCOCCOCCOCCOCCOCCOCCC(=O)NCCOCCOCCOCCNS(=O)(=O)c3ccc(Oc4c(F)cc(/C=C(\C)C(=O)N=C(N)N)cc4F)cc3)cc2)c(F)c1)C(=O)N=C(N)N [Example 102, N1,N31-bis(2-(2-(2-(2-(4-(4-((E)-3 (diaminomethyleneamino)-2-methyl-3-oxoprop-1-enyl)-2,6-difluorophenoxy)phenylsulfonamido)ethoxy)ethoxy)ethoxy)ethyl)-4,7,10,13,16,19,22,25,28-nonaoxahentriacontane-1,31-diamide]
14 | 1 to 10 | CN1Cc2c(Cl)cc(Cl)cc2C(c2cccc(S(=O)(=O)NCCOCCOCCOCCNC(=O)Nc3ccc(NC(=O)NCCOCCOCCOCCNS(=O)(=O)c4cccc(C5CN(C)Cc6c(Cl)cc(Cl)cc65)c4)cc3)c2)C1 (stereo not shown) [Example 209, N,N′-(1,1′-(1,4-phenylenebis(azanediyl))bis(1-oxo-5,8,11-trioxa-2-azatridecane-13,1-diyl))bis(3-(6,8-dichloro-2-methyl-1,2,3,4-tetrahydroisoquinolin-4-yl)benzenesulfonamide)]
15 | < 0.1 | CN1Cc2c(Cl)cc(Cl)cc2C(c2cccc(S(=O)(=O)NCCOCCOCCOCCn3cc(COCc4cn(CCOCCOCCOCCNS(=O)(=O)c5cccc(C6CN(C)Cc7c(Cl)cc(Cl)cc76)c5)nn4)nn3)c2)C1 (stereo not shown) [Example 81, N,N′-(2,2′-(2,2-(2,2′-(2,2′-(4,4′-oxybis(methylene)bis(1H-1,2,3-triazole-4,1-diyl))bis(ethane-2,1-diyl))bis(oxy)bis(ethane-2,1-diyl))bis(oxy)bis(ethane-2,1-diyl))bis(oxy)bis(ethane-2,1-diyl))bis(3-(6,8-dichloro-2-methyl-1,2,3,4-tetrahydroisoquinolin-4-yl)benzenesulfonamide)]

Tested on: not listed separately
Experiment: Determination of compound Cmax and AUC
Assay type: in vivo
Details: rat; Sprague-Dawley rats, oral gavage, serum 0.5-4 h; actual oral dose (mg/kg) given
Procedure: Sprague-Dawley rats were orally gavaged with test article (2.5 mg/kg) and serum was collected at 0.5, 1, 2 and 4 h. Serum samples were treated with acetonitrile, precipitated proteins removed by centrifugation and supernatants analyzed by LC/MS/MS and compared against a standard curve to determine compound concentration. All compounds were orally dosed at the dosage shown, and pharmacokinetic parameters determined as described in the text.

Row | Compound | AUC [ng·h/mL] | Cmax [ng/mL]
16 | CN1Cc2c(Cl)cc(Cl)cc2C(c2ccc(S(=O)(=O)NCCOCCOCCNC(=O)c3ccc(C(=O)NCCOCCOCCNS(=O)(=O)c4ccc(C5CN(C)Cc6c(Cl)cc(Cl)cc65)cc4)cc3)cc2)C1 (stereo not shown) [Example 231, N1,N4-bis(2-(2-(2-(4-(6,8-dichloro-2-methyl-1,2,3,4-tetrahydroisoquinolin-4-yl)phenylsulfonamido)ethoxy)ethoxy)ethyl)terephthalamide] | < 3 | < 2.5
17 | CN1Cc2c(Cl)cc(Cl)cc2C(c2cccc(S(=O)(=O)NCCOCCOCCOCCNC(=O)CN(CC(=O)NCCOCCOCCOCCNS(=O)(=O)c3cccc(C4CN(C)Cc5c(Cl)cc(Cl)cc54)c3)CC(=O)NCCOCCOCCOCCNS(=O)(=O)c3cccc(C4CN(C)Cc5c(Cl)cc(Cl)cc54)c3)c2)C1 (stereo not shown) [Example 213, 2,2′,2″-nitrilotris(N-(2-(2-(2-(2-(3-(6,8-dichloro-2-methyl-1,2,3,4-tetrahydroisoquinolin-4-yl)phenylsulfonamido)ethoxy)ethoxy)ethoxy)ethyl)acetamide)] | < 5 | < 5
